In patent US20100311714A1, “1H-IMIDAZO[4,5-c]QUINOLINONE COMPOUNDS” (priority 2009, published 2010) one finds IC50 data, which are given here for 33 molecules.

pIC50: −log10 of the molar value.

This experiment concerns PKB Ser473 phosphorylation in Rat1-myr-HA-p110 alpha cells. Description: Reverse protein array, PKB Ser473 phosphorylation in Rat1-myr-HA-p110 alpha cells. The experiment is classed as cell-based. The note with it: Rattus norvegicus, 0.5 h, 30 minutes compound incubation, read-out: p-PKB/IC50_alpha.
As for `COc1ncccc1-n1c(=O)n(C)c2cnc3ccc(-c4cnc5[nH]ccc5c4)cc3c21` [Example 1.2, 1-(2-Methoxy-pyridin-3-yl)-3-methyl-8-(1H-pyrrolo[2,3-b]pyridin-5-yl)-1,3-dihydro-imidazo[4,5-c]quinolin-2-one], the pIC50 was 8.24.

Turning to `COc1ncccc1-n1c(=O)n(C)c2cnc3ccc(-c4ccc(C(N)=O)cc4)cc3c21` [Example 1.6, 4-[1-(2-Methoxy-pyridin-3-yl)-3-methyl-2-oxo-2,3-dihydro-1H-imidazo[4,5-c]quinolin-8-yl]-benzamide], the pIC50 was 8.18.

For the molecule `Cc1ncccc1-n1c(=O)n(C)c2cnc3ccc(-c4ccc(C(N)=O)cc4)cc3c21` [Example 2.3, 4-[3-Methyl-1-(2-methyl-pyridin-3-yl)-2-oxo-2,3-dihydro-1H-imidazo[4,5-c]quinolin-8-yl]-benzamide], the pIC50 was 7.68. `CCOc1ncc(-c2ccc3ncc4c(c3c2)n(-c2cccnc2C)c(=O)n4C)cn1` [Example 2.5, 8-(2-Ethoxy-pyrimidin-5-yl)-3-methyl-1-(2-methyl-pyridin-3-yl)-1,3-dihydro-imidazo[4,5-c]quinolin-2-one]: the pIC50 was 7.31.

For `Cc1ncccc1-n1c(=O)n(C)c2cnc3ccc(-c4ccc(CO)nc4)cc3c21` [Example 2.6, 8-(6-Hydroxymethyl-pyridin-3-yl)-3-methyl-1-(2-methyl-pyridin-3-yl)-1,3-dihydro-imidazo[4,5-c]quinolin-2-one], the pIC50 is 7.41. As for `Cc1ncccc1-n1c(=O)n(C)c2cnc3ccc(-c4ccc(N)nc4)cc3c21` [Example 2.7, 8-(6-Amino-pyridin-3-yl)-3-methyl-1-(2-methyl-pyridin-3-yl)-1,3-dihydro-imidazo[4,5-c]quinolin-2-one], the figure is 7.93; as for `COc1ccc(-c2ccc3ncc4c(c3c2)n(-c2cccnc2C)c(=O)n4C)cc1OC` [Example 2.9, 8-(3,4-Dimethoxy-phenyl)-3-methyl-1-(2-methyl-pyridin-3-yl)-1,3-dihydro-imidazo[4,5-c]quinolin-2-one], 8.08; as for `Cc1ncccc1-n1c(=O)n(C)c2cnc3ccc(-c4ccc(OCCCN(C)C)nc4)cc3c21` [Example 2.10, 8-[6-(3-Dimethylamino-propoxy)-pyridin-3-yl]-3-methyl-1-(2-methyl-pyridin-3-yl)-1,3-dihydro-imidazo[4,5-c]quinolin-2-one], 6.94. Turning to `Cc1ncccc1-n1c(=O)n(C)c2cnc3ccc(-c4cnc(N)c(C(F)(F)F)c4)cc3c21` [Example 2.11, 8-(6-Amino-5-trifluoromethyl-pyridin-3-yl)-3-methyl-1-(2-methyl-pyridin-3-yl)-1,3-dihydro-imidazo[4,5-c]quinolin-2-one], the pIC50 is 8.15.

On to `COc1ccc(-c2ccc3ncc4c(c3c2)n(-c2cccnc2C)c(=O)n4C)cn1` [Example 2.12, 8-(6-Methoxy-pyridin-3-yl)-3-methyl-1-(2-methyl-pyridin-3-yl)-1,3-dihydro-imidazo[4,5-c]quinolin-2-one], for which the pIC50 is 7.53. As for `CNc1ccc(-c2ccc3ncc4c(c3c2)n(-c2cccnc2C)c(=O)n4C)cn1` [Example 2.13, 3-Methyl-8-(6-methylamino-pyridin-3-yl)-1-(2-methyl-pyridin-3-yl)-1,3-dihydro-imidazo[4,5-c]quinolin-2-one], the figure is 7.94; as for `Cc1ncccc1-n1c(=O)n(C)c2cnc3ccc(-c4cnc(N(C)C)nc4)cc3c21` [Example 2.15, 8-(2-Dimethylamino-pyrimidin-5-yl)-3-methyl-1-(2-methyl-pyridin-3-yl)-1,3-dihydro-imidazo[4,5-c]quinolin-2-one], 7.14.

In the case of `Cc1ncccc1-n1c(=O)n(C)c2cnc3ccc(-c4cncc(NC(C)C)c4)cc3c21` [Example 2.24, 8-(5-Isopropylamino-pyridin-3-yl)-3-methyl-1-(2-methyl-pyridin-3-yl)-1,3-dihydro-imidazo[4,5-c]quinolin-2-one], the pIC50 is 7.65. Consider `Cc1ncccc1-n1c(=O)n(C)c2cnc3ccc(-c4cncc(N)c4)cc3c21` [Example 2.25, 8-(5-Amino-pyridin-3-yl)-3-methyl-1-(2-methyl-pyridin-3-yl)-1,3-dihydro-imidazo[4,5-c]quinolin-2-one], for which the pIC50 is 7.44. Regarding `CNc1cncc(-c2ccc3ncc4c(c3c2)n(-c2cccnc2C)c(=O)n4C)c1` [Example 2.26, 3-Methyl-8-(5-methylamino-pyridin-3-yl)-1-(2-methyl-pyridin-3-yl)-1,3-dihydro-imidazo[4,5-c]quinolin-2-one], the pIC50 is 8.19.

`COc1cc(-c2ccc3ncc4c(c3c2)n(-c2cccnc2C)c(=O)n4C)cnc1C(OC)OC` [Example 2.27, 8-(6-Dimethoxymethyl-5-methoxy-pyridin-3-yl)-3-methyl-1-(2-methyl-pyridin-3-yl)-1,3-dihydro-imidazo[4,5-c]quinolin-2-one]: the pIC50 is 7.00. Take `CCOc1cc(-c2ccc3ncc4c(c3c2)n(-c2cccnc2C)c(=O)n4C)cnc1COC` [Example 2.28, 8-(5-Ethoxy-6-methoxymethyl-pyridin-3-yl)-3-methyl-1-(2-methyl-pyridin-3-yl)-1,3-dihydro-imidazo[4,5-c]quinolin-2-one]: the pIC50 is 7.63. Consider `Cc1ncccc1-n1c(=O)n(C)c2cnc3ccc(-c4cncc(N5CCC5)c4)cc3c21` [Example 2.29, 8-(5-Azetidin-1-yl-pyridin-3-yl)-3-methyl-1-(2-methyl-pyridin-3-yl)-1,3-dihydro-imidazo[4,5-c]quinolin-2-one], for which the pIC50 is 8.06. With `CCNc1cc(-c2ccc3ncc4c(c3c2)n(-c2cccnc2C)c(=O)n4C)cnc1CO` [Example 2.31, 8-(5-Ethylamino-6-hydroxymethyl-pyridin-3-yl)-3-methyl-1-(2-methyl-pyridin-3-yl)-1,3-dihydro-imidazo[4,5-c]quinolin-2-one], the pIC50 was > 8.34. As for `CNc1cc(-c2ccc3ncc4c(c3c2)n(-c2cccnc2C)c(=O)n4C)cnc1C` [Example 2.32, 3-Methyl-8-(6-methyl-5-methylamino-pyridin-3-yl)-1-(2-methyl-pyridin-3-yl)-1,3-dihydro-imidazo[4,5-c]quinolin-2-one], the figure is > 8.34. For `CCOc1ncc(-c2ccc3ncc4c(c3c2)n(-c2ncccc2C)c(=O)n4C)cn1` [Example 3.1, 8-(2-Ethoxy-pyrimidin-5-yl)-3-methyl-1-(3-methyl-pyridin-2-yl)-1,3-dihydro-imidazo[4,5-c]quinolin-2-one], the pIC50 was 6.20.

For the molecule `Cc1cccnc1-n1c(=O)n(C)c2cnc3ccc(-c4ccc(C(N)=O)cc4)cc3c21` [Example 3.3, 4-[3-Methyl-1-(3-methyl-pyridin-2-yl)-2-oxo-2,3-dihydro-1H-imidazo[4,5-c]quinolin-8-yl]-benzamide], the pIC50 was 6.75. As for `CNc1ncc(-c2ccc3ncc4c(c3c2)n(-c2ncccc2C)c(=O)n4C)cn1` [Example 3.4, 3-Methyl-8-(2-methylamino-pyrimidin-5-yl)-1-(3-methyl-pyridin-2-yl)-1,3-dihydro-imidazo[4,5-c]quinolin-2-one], the figure is 6.65; as for `CNC(=O)c1ccc(-c2ccc3ncc4c(c3c2)n(-c2ncccc2C)c(=O)n4C)cc1` [Example 3.5, N-Methyl-4-[3-methyl-1-(3-methyl-pyridin-2-yl)-2-oxo-2,3-dihydro-1H-imidazo[4,5-c]quinolin-8-yl]-benzamide], 7.03; as for `CCOc1ccc(-c2ccc3ncc4c(c3c2)n(-c2ncccc2C)c(=O)n4C)cn1` [Example 3.6, 8-(6-Ethoxy-pyridin-3-yl)-3-methyl-1-(3-methyl-pyridin-2-yl)-1,3-dihydro-imidazo[4,5-c]quinolin-2-one], 6.82. In the case of `Cc1cccnc1-n1c(=O)n(C)c2cnc3ccc(-c4ccc(CO)nc4)cc3c21` [Example 3.9, 8-(6-Hydroxymethyl-pyridin-3-yl)-3-methyl-1-(3-methyl-pyridin-2-yl)-1,3-dihydro-imidazo[4,5-c]quinolin-2-one] it was 6.52. In the case of `COc1ccc(-c2ccc3ncc4c(c3c2)n(-c2ncccc2C)c(=O)n4C)cc1OC` [Example 3.10, 8-(3,4-Dimethoxy-phenyl)-3-methyl-1-(3-methyl-pyridin-2-yl)-1,3-dihydro-imidazo[4,5-c]quinolin-2-one] it was 7.11; in that of `Cc1cccnc1-n1c(=O)n(C)c2cnc3ccc(-c4ccc(N(C)C)nc4)cc3c21` [Example 3.11, 8-(6-Dimethylamino-pyridin-3-yl)-3-methyl-1-(3-methyl-pyridin-2-yl)-1,3-dihydro-imidazo[4,5-c]quinolin-2-one], 6.43.

Take `Cc1cccnc1-n1c(=O)n(C)c2cnc3ccc(-c4cnc(N)c(C(F)(F)F)c4)cc3c21` [Example 3.12, 8-(6-Amino-5-trifluoromethyl-pyridin-3-yl)-3-methyl-1-(3-methyl-pyridin-2-yl)-1,3-dihydro-imidazo[4,5-c]quinolin-2-one]: the pIC50 was 7.86.

Turning to `Cc1ccncc1-n1c(=O)n(C)c2cnc3ccc(-c4ccc(CO)nc4)cc3c21` [Example 4.1, 8-(6-Hydroxymethyl-pyridin-3-yl)-3-methyl-1-(4-methyl-pyridin-3-yl)-1,3-dihydro-imidazo[4,5-c]quinolin-2-one], the pIC50 was 6.27. In the case of `CCOc1ccc(-c2ccc3ncc4c(c3c2)n(-c2cnccc2C)c(=O)n4C)cn1` [Example 4.2, 8-(6-Ethoxy-pyridin-3-yl)-3-methyl-1-(4-methyl-pyridin-3-yl)-1,3-dihydro-imidazo[4,5-c]quinolin-2-one], the pIC50 is 7.33. With `COc1ccc(-c2ccc3ncc4c(c3c2)n(-c2cnccc2C)c(=O)n4C)cn1` [Example 4.3, 8-(6-Methoxy-pyridin-3-yl)-3-methyl-1-(4-methyl-pyridin-3-yl)-1,3-dihydro-imidazo[4,5-c]quinolin-2-one], the pIC50 was 6.69. In the case of `Cn1c(=O)n(-c2cccnc2)c2c3cc(-c4ccc(CO)nc4)ccc3ncc21` [Example 5.1, 8-(6-Hydroxymethyl-pyridin-3-yl)-3-methyl-1-pyridin-3-yl-1,3-dihydro-imidazo[4,5-c]quinolin-2-one] it was 6.78.
